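Grown in 96-well plates, cells were treated for 48 hours with each compound at five concentrations. Insufficient inhibition: endpoint recorded as highest concentration tested. TGI marks complete inhibition of growth.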
Legend:
Assay in all cases: growth of human tumour cells (NCI), 48 h
[1] = test system: OVCAR-5 ovarian
[2] = test system: COLO 205 colon
[3] = test system: UACC-62 melanoma
[4] = test system: SF-539 CNS
[5] = test system: HT29 colon
[6] = test system: SW-620 colon
[7] = test system: RXF 393 renal
[8] = test system: SK-OV-3 ovarian
[9] = test system: SK-MEL-5 melanoma
[10] = test system: SN12C renal
[11] = test system: RPMI-8226 leukemia
[12] = test system: HOP-92 NSCLC
[13] = test system: 786-0 renal
[14] = test system: SNB-75 CNS
[15] = test system: DU-145 prostate
[16] = test system: HS 578T breast
[17] = test system: MDA-MB-435
[18] = test system: EKVX NSCLC
[19] = test system: ACHN renal
[20] = test system: OVCAR-8 ovarian
[21] = test system: HCC-2998 colon
[22] = test system: NCI-H226 lung
[23] = test system: IGROV1 ovarian
[24] = test system: HL-60(TB) leukemia
[25] = test system: MOLT-4 leukemia
[26] = test system: U251 CNS
[27] = test system: MDA-MB-231 breast
[28] = test system: HOP-62 NSCLC
[29] = test system: SF-295 CNS
[30] = test system: UO-31 renal
[31] = test system: A549 NSCLC
[32] = test system: NCI-H522 lung
[33] = test system: LOX IMVI melanoma
[34] = test system: HCT-15 colon
[35] = test system: SF-268 CNS
[36] = test system: SNB-19 CNS
[37] = test system: MDA-N
[38] = test system: PC-3 prostate
[39] = test system: UACC-257 melanoma
[40] = test system: T-47D breast
[41] = test system: M14 melanoma
[42] = test system: TK-10 renal
[43] = test system: BT-549 breast
[44] = test system: K-562 leukemia
[45] = test system: OVCAR-4 ovarian
[46] = test system: CAKI-1 renal
[47] = test system: MCF7 breast
[48] = test system: NCI-H460 lung
[49] = test system: KM12 colon
[50] = test system: A498 renal
[51] = test system: SR leukemia
[52] = test system: SK-MEL-2 melanoma
[53] = test system: OVCAR-3 ovarian
[54] = test system: NCI/ADR-RES ovarian
[55] = test system: SK-MEL-28 melanoma
[56] = test system: HCT-116 colon
[57] = test system: NCI-H23 lung
[58] = test system: CCRF-CEM leukemia
[59] = test system: MALME-3M melanoma

Compound: CCOC(=O)NNC1(SC)NC(=O)c2c(cc(Cl)oc2=O)O1 (stereo unspecified)
- TGI [1]: 25.2 µM
- TGI [2]: 25.9 µM
- TGI [3]: 25.1 µM
- TGI [4]: 4.57 µM
- TGI [5]: 5.26 µM
- TGI [6]: > 37 µM
- TGI [7]: 6.93 µM
- TGI [8]: 26.8 µM
- TGI [9]: > 45.5 µM
- TGI [10]: 14.7 µM
- TGI [11]: 7.65 µM
- TGI [12]: 4.63 µM
- TGI [13]: 4.84 µM
- TGI [14]: 22.2 µM
- TGI [15]: 19.7 µM
- TGI [16]: 12.3 µM
- TGI [17]: 17.6 µM
- TGI [18]: 20.4 µM
- TGI [19]: 4.79 µM
- TGI [20]: 5.56 µM
- TGI [21]: 16.1 µM
- TGI [22]: 43.8 µM
- TGI [23]: 14.5 µM
- TGI [24]: 3.6 µM
- TGI [25]: 10.3 µM
- TGI [26]: 25.5 µM
- TGI [27]: 25.1 µM
- TGI [28]: 25.6 µM
- TGI [29]: 25.9 µM
- TGI [30]: 3.35 µM
- TGI [31]: 21.1 µM
- TGI [32]: 6.26 µM
- TGI [33]: 6.18 µM
- TGI [34]: 5.28 µM
- TGI [35]: 10.7 µM
- TGI [36]: 25.4 µM
- TGI [37]: 22.2 µM
- TGI [38]: 13.2 µM
- TGI [39]: 30.4 µM
- TGI [40]: 29.9 µM
- TGI [41]: 11.7 µM
- TGI [42]: 10.1 µM
- TGI [43]: 12.2 µM
- TGI [44]: 9.07 µM
- TGI [45]: 18.9 µM
- TGI [46]: 8.02 µM
- TGI [47]: 5.84 µM
- TGI [48]: 23.7 µM
- TGI [49]: 23.6 µM
- TGI [50]: 29.2 µM
- TGI [51]: 6.69 µM
- TGI [52]: 24 µM
- TGI [53]: 10.9 µM
- TGI [54]: 25.7 µM
- TGI [55]: 10.5 µM
- TGI [56]: 3.08 µM
- TGI [57]: 13.1 µM
- TGI [58]: 10.5 µM

Compound: C=CCOc1ccc(C2c3c([nH][nH]c3=O)CC(C)(O)C2C(=O)OC)cc1OC (stereo unspecified)
- TGI [1]: > 100 µM
- TGI [2]: > 100 µM
- TGI [3]: > 100 µM
- TGI [4]: > 100 µM
- TGI [59]: > 100 µM
- TGI [5]: > 100 µM
- TGI [6]: > 100 µM
- TGI [9]: > 100 µM
- TGI [10]: > 100 µM
- TGI [11]: > 100 µM
- TGI [12]: > 100 µM
- TGI [13]: > 100 µM
- TGI [14]: > 100 µM
- TGI [15]: > 100 µM
- TGI [16]: > 100 µM
- TGI [17]: > 100 µM
- TGI [18]: > 100 µM
- TGI [19]: > 100 µM
- TGI [20]: > 100 µM
- TGI [21]: > 100 µM
- TGI [23]: > 100 µM
- TGI [24]: > 100 µM
- TGI [25]: > 100 µM
- TGI [26]: > 100 µM
- TGI [27]: > 100 µM
- TGI [28]: > 100 µM
- TGI [29]: > 100 µM
- TGI [30]: > 100 µM
- TGI [31]: > 100 µM
- TGI [32]: > 100 µM
- TGI [33]: > 100 µM
- TGI [34]: > 100 µM
- TGI [35]: > 100 µM
- TGI [36]: > 100 µM
- TGI [37]: > 100 µM
- TGI [38]: > 100 µM
- TGI [39]: > 100 µM
- TGI [40]: > 100 µM
- TGI [41]: > 100 µM
- TGI [42]: > 100 µM
- TGI [43]: > 100 µM
- TGI [45]: > 100 µM
- TGI [46]: > 100 µM
- TGI [47]: > 100 µM
- TGI [48]: > 100 µM
- TGI [49]: > 100 µM
- TGI [50]: > 100 µM
- TGI [51]: > 100 µM
- TGI [52]: > 100 µM
- TGI [53]: > 100 µM
- TGI [54]: > 100 µM
- TGI [55]: > 100 µM
- TGI [56]: > 100 µM
- TGI [57]: > 100 µM
- TGI [58]: > 100 µM

Compound: C#CCSc1cnc2ccccc2c1Sc1c[nH]c2ccccc2c1=O
- TGI [1]: > 100 µM
- TGI [2]: > 100 µM
- TGI [3]: 54.1 µM
- TGI [4]: > 100 µM
- TGI [59]: > 100 µM
- TGI [5]: > 100 µM
- TGI [6]: > 100 µM
- TGI [7]: 36.1 µM
- TGI [8]: > 100 µM
- TGI [9]: 44.8 µM
- TGI [10]: 40.7 µM
- TGI [11]: > 100 µM
- TGI [12]: 61.2 µM
- TGI [13]: 44.9 µM
- TGI [14]: 83.3 µM
- TGI [15]: > 100 µM
- TGI [16]: > 100 µM
- TGI [17]: > 100 µM
- TGI [18]: > 100 µM
- TGI [19]: 36.7 µM
- TGI [20]: > 100 µM
- TGI [21]: 38.2 µM
- TGI [22]: 89.9 µM
- TGI [23]: 20 µM
- TGI [24]: 88.9 µM
- TGI [25]: > 100 µM
- TGI [26]: 50 µM
- TGI [27]: > 100 µM
- TGI [28]: > 100 µM
- TGI [29]: > 100 µM
- TGI [30]: 5.99 µM
- TGI [31]: > 100 µM
- TGI [32]: 29.1 µM
- TGI [33]: 38.9 µM
- TGI [34]: > 100 µM
- TGI [35]: > 100 µM
- TGI [36]: > 100 µM
- TGI [37]: > 100 µM
- TGI [38]: > 100 µM
- TGI [39]: 64.4 µM
- TGI [40]: 42.5 µM
- TGI [41]: > 100 µM
- TGI [42]: > 100 µM
- TGI [43]: > 100 µM
- TGI [44]: > 100 µM
- TGI [45]: > 100 µM
- TGI [46]: > 100 µM
- TGI [47]: > 100 µM
- TGI [48]: 59.8 µM
- TGI [49]: 65 µM
- TGI [51]: > 100 µM
- TGI [52]: 53.5 µM
- TGI [53]: > 100 µM
- TGI [54]: > 100 µM
- TGI [55]: > 100 µM
- TGI [56]: 32.5 µM
- TGI [57]: > 100 µM
- TGI [58]: > 100 µM

— PubChem BioAssay (NCI)
